This passage reports cytotoxicity results from ChEMBL document CHEMBL3507680, “University of Dundee, Gates Library screen for HepG2 cell viability”.

SMILES strings stand for the structures.

This data set in a line: Human HepG2 cell viability assay in 384 well format. It is filed as toxicity, cell-based. On the set-up: dose 125 nL, time 70.5 hour; cytotoxicity at 70.5 h: concentration not given beside the values. As to conditions: HepG2 cells, read-out: Inhibition.
Regarding `CCNC(=O)NC1CCC(Oc2ccccc2C#N)CC1` (stereo not drawn), the cytotoxicity at 70.5 h was determined as 9.88%.
With `CCn1nc(C)c2nc(C(C)C)nc(N3CCCC3)c21` the figure was 15.3%; with `CCc1cc(C(=O)N2CCCC2c2nc(C)c(F)c(O)n2)on1` (stereo not drawn), 4.3%.
With `Cc1nc(CN(C)C2CCN(Cc3nc4ccccc4n3C)C2)no1` (stereo not drawn), the cytotoxicity at 70.5 h was -2.1%.
For `COCCOC[C@]1(CNCc2ccc(OC)cc2)C[C@@H](O)[C@@H](O)C1`, the cytotoxicity at 70.5 h is -7.9%.
The value for `Cc1nc(CN2CCC(c3nc4ccccc4n3C)CC2)co1` was -24.4%; that for `Cc1occc1C(=O)N1CCCC2(CCN(c3ccccc3)C2=O)C1` (stereo not drawn) was 12.9%; that for `Cc1n[nH]cc1CNCC(O)c1ccc(F)c(F)c1` (stereo not drawn) was -7.55%.
The value for `c1cnc(N2CC3(CCN(C4CCOCC4)CC3)c3ccccc32)nc1` was -0.647%; that for `COCCS(=O)(=O)NC(C)c1ccc(-n2nc(C)cc2C)cc1` (stereo not drawn) was 3.86%.
The value for `COCCN1C[C@H]2CCC[C@@H](CNc3ncccn3)[C@H]2C1` was -10.7%; that for `COCC1CC2(CCN(Cc3nccn3C)CC2)CN1c1ncccn1` (stereo not drawn) was -0.457%.
Consider `NC(=O)C1CCCN(c2ccc(CNC(=O)c3cnsn3)cc2)C1` (stereo not drawn), for which the cytotoxicity at 70.5 h was -7.99%.
As to `O=C(CC1CCCC1)NCCS(=O)(=O)N1CCN(c2ncccn2)CC1`, the cytotoxicity at 70.5 h was -11%.
Turning to `Cc1cc(C(=O)N2C[C@H](c3ccccc3)[C@@H](N)C2)c2ccc(F)cc2n1`, the cytotoxicity at 70.5 h was -12.1%.
For `CN(C)C[C@@H]1C[C@@H]2CN(c3ncc(F)cn3)CC[C@@H]2N1C`, the cytotoxicity at 70.5 h was -3.26%.
As to `Cc1ccc(CN2CC[C@H]3O[C@@H](C(=O)N4CCCO4)CC[C@H]32)s1`, the cytotoxicity at 70.5 h is -4%.
Regarding `O=C(Cc1cccs1)NCC1(O)CCSC1` (stereo not drawn), the cytotoxicity at 70.5 h was -5.51%.
Take `COCCC(=O)N1C[C@H]2CCC[C@@]2(COC)C1`: the cytotoxicity at 70.5 h is -6.36%.
Turning to `Cc1cnn(CC2CCCCN2C(=O)c2cccnc2N(C)C)c1` (stereo not drawn), the cytotoxicity at 70.5 h came out at 9.64%.
For the compound `CCC(=O)N1CCC2(CC1)CC(CC(=O)NC1CC1)c1ccccc1O2` (stereo not drawn), the cytotoxicity at 70.5 h was found to be 5.58%.
As to `CCN(CC(=O)Nc1c(C)nn(C)c1C)CC(O)c1ccc(C)cc1` (stereo not drawn), the cytotoxicity at 70.5 h is -5.69%.
`O=C(NCc1ccccc1)N1C[C@H]2CCN[C@H]2C1`: the cytotoxicity at 70.5 h worked out at 26%.
Regarding `Cn1ccc(C(=O)N2CCC(Cc3cccc4ncccc34)C2)n1` (stereo not drawn), the cytotoxicity at 70.5 h was -1.84%.
The value for `CCn1c(Cn2cccn2)nnc1C1CCN(Cc2ccc(C)o2)CC1` was 19.3%; that for `CN(Cc1nc(Cc2cccc(C(F)(F)F)c2)no1)C(C1CC1)C1CC1` was -9.87%.
Take `Cc1noc(C(C)N2CCN(CCn3ccccc3=O)CC2)n1` (stereo not drawn): the cytotoxicity at 70.5 h is -1.66%.
With `CCc1nnc(Sc2nn3cc(C)nc3s2)n1C` the figure was -2.38%.
With `CCc1nc(CN2CCCN(C(=O)C3CCOC3)CC2)cs1` (stereo not drawn), the cytotoxicity at 70.5 h came to 7.45%.
As for `COc1ccc(-c2cccc(-c3ccn(CCN(C)C)n3)c2)nn1`, the cytotoxicity at 70.5 h is -3.58%.
In the case of `CS(=O)(=O)Cc1cccc(CNS(=O)(=O)c2ccc(F)c(F)c2)c1`, the cytotoxicity at 70.5 h is -8.75%.
In the case of `O=C(c1cncs1)N1CCCC1c1ccn[nH]1` (stereo not drawn), the cytotoxicity at 70.5 h is -3.39%.
With `Cc1cc(C)cc(C(=O)N2CCCC3(CCCC(=O)N3C)C2)c1` (stereo not drawn), the cytotoxicity at 70.5 h was -14.4%.
`Cn1c(NCc2ccc(C(N)=O)cc2)nc2cc(Cl)ccc21`: the cytotoxicity at 70.5 h turned out to be 18.9%.
With `Cc1nonc1NC(=O)c1ccc(F)c(COCC2CC2)c1` the figure was 11.9%; with `O=C(Nc1ccc(Cn2cccn2)cc1)N1CCC2(CC1)OCCO2`, 22.5%.
In the case of `Cn1ccnc1C1CCN(S(=O)(=O)c2ccc3[nH]c(=O)[nH]c3c2)CC1`, the cytotoxicity at 70.5 h was 15.5%.
Take `CCN1CCc2onc(CNc3ncccn3)c2C1`: the cytotoxicity at 70.5 h turned out to be 8.16%.
With `CN(Cc1cnn(C)c1)C(=O)CCC(=O)c1ccc2c(c1)OCCO2`, the cytotoxicity at 70.5 h was -82.6%.
In the case of `CCCS(=O)(=O)N1CCOC2(CCCN(Cc3ccccn3)C2)C1` (stereo not drawn), the cytotoxicity at 70.5 h was -2.44%.
The value for `CC(C)c1ncc(CN2C[C@@H](CN3CCCCC3)[C@@H](CO)C2)cn1` was -2.58%.
With `CN(C)[C@@H]1CCN(S(=O)(=O)c2cn(C)cn2)[C@H]1Cc1cccnc1`, the cytotoxicity at 70.5 h is -2.89%.
With `CC(=O)NC(C(=O)N(C)Cc1nnc2n1CCC2)C(C)C` (stereo not drawn), the cytotoxicity at 70.5 h is 22.2%.
Take `Cc1cccc(NC(=O)CN(C)C(=O)c2ccc(-n3cccc3)nc2)n1`: the cytotoxicity at 70.5 h is -4.2%.
For the compound `O=C(NCC1CC1)[C@@H]1CCO[C@@H]2CCN(Cc3ccco3)C[C@H]21`, the cytotoxicity at 70.5 h amounted to 15.7%.
Take `CN(CCC#N)C(=O)Cn1cnc2c(Br)cccc2c1=O`: the cytotoxicity at 70.5 h was -1.58%.
With `Cc1ccnc(NC(=O)CSCc2cccnc2)c1` the figure was -2.67%; with `Cc1cc(C[C@@H]2COC[C@@H]2NC(=O)Cn2c(=O)oc3ccccc32)on1`, 1.37%; with `CSc1cccc(CC(=O)N[C@@H]2CCNC[C@H]2O)c1`, 10.3%.
On to `CCc1[nH]ncc1C(=O)N1CCOC(c2nc(C)n[nH]2)C1` (stereo not drawn), for which the cytotoxicity at 70.5 h is -2.8%.
The value for `O=C(Cc1ccccc1)N1CCn2cc(Cn3cncn3)nc2C1` was 9.06%; that for `CSc1ccc(C(=O)C2CCCN(C(=O)Cn3cnnn3)C2)cc1` (stereo not drawn) was -6.73%; that for `CN(Cc1cccnc1)C[C@@H]1OC[C@H]2CN(Cc3ccco3)CC[C@H]21` was -2.49%.
Consider `N#Cc1cnc(NCCCN2C(=O)COc3ccccc32)c(Cl)c1`, for which the cytotoxicity at 70.5 h turned out to be 2.01%.
With `CCN1CCC(NC(=O)c2ccc(F)cc2I)CC1`, the cytotoxicity at 70.5 h is -7.1%.
`Fc1cccc(Cl)c1Cn1ncnc1CSCCN1CCCC1`: the cytotoxicity at 70.5 h was -6.36%.
With `Cc1nc([C@H]2C[C@@H]3CCN(Cc4cnn(C)c4)C[C@H]3O2)sc1C`, the cytotoxicity at 70.5 h was -1.71%.
For `CCN(C(=O)CCc1ccc2[nH]ccc2c1)C1CC(=O)NC1=O` (stereo not drawn), the cytotoxicity at 70.5 h was -2.25%.
As to `CC(C)NC(=O)C1CN(C(=O)c2ccc(F)cc2)CC12CCOCC2` (stereo not drawn), the cytotoxicity at 70.5 h was 23.6%.
The value for `CNC(=O)c1cnn2c(C3CCCN3C)ccnc12` (stereo not drawn) was 12.8%; that for `Cc1cccc(NC(=O)Cn2ncc(SCC(N)=O)c(Cl)c2=O)c1C` was -13.7%.
With `NS(=O)(=O)c1cnn(-c2ccc(NC(=O)CC3CCCC3)cn2)c1` the figure was -5.14%; with `CS(=O)(=O)NCC1CCCN(C(=O)Nc2ccccc2F)C1` (stereo not drawn), 1.05%; with `O=C(Nc1ccccc1OC(F)F)C1=NN(c2ccccc2)C(=O)CN1`, -8.48%.
With `COc1ccccc1CNc1cnn(CC(F)F)c1` the figure was 1.56%.
For the compound `CN(CC(=O)N1CCCC1)C(=O)Cc1csc(-c2ncccn2)n1`, the cytotoxicity at 70.5 h was -1.25%.
With `CC(C)c1nnc(NC(=O)CCC(=O)NCC2CCCO2)s1` (stereo not drawn), the cytotoxicity at 70.5 h is -12.5%.
As for `COc1ccc(OC)c2c(C)cc(N(C)CCCO)nc12`, the cytotoxicity at 70.5 h was determined as 4.59%.
With `CSc1ccc(C(=O)N2C[C@H]3CC[C@@H]2CN(Cc2cccnc2)C3)cc1` the figure was -5.35%.
As for `CN1CCOC(CNCCc2ccccn2)C1` (stereo not drawn), the cytotoxicity at 70.5 h is -1.1%.
Take `Cc1nn(C)c(C)c1C1CCCN1C(=O)c1nccnc1N` (stereo not drawn): the cytotoxicity at 70.5 h is -8.84%.
Regarding `Cn1cnnc1CCNC(=O)c1ccccc1OC1CCC1`, the cytotoxicity at 70.5 h worked out at 7.31%.
With `Fc1cccc(Cl)c1CN1CCC(c2n[nH]c3ncccc23)CC1` the figure was 13.7%; with `Cc1c(C(=O)N2CCSCC2)sc2nc(C(F)(F)F)ccc12`, -9.06%; with `Cc1nc(-c2nc(C(=O)NC3CC3)c3ccccn23)cn1C(C)C`, -2.95%.
With `CS(=O)(=O)NCCC1CCCCN1C(=O)NCCc1ccccc1` (stereo not drawn), the cytotoxicity at 70.5 h is 17.9%.
Regarding `c1sc(C2CCCC2)nc1CN1CCn2c(nnc2C2CC2)C1`, the cytotoxicity at 70.5 h amounted to 4.56%.
For the compound `Cc1cc(Cc2ccc(S(=O)(=O)N3CCCC3)cc2)c(=O)[nH]n1`, the cytotoxicity at 70.5 h is -23.4%.
The value for `O=C(C1=COCCO1)N1CC(Oc2nc3c(Cl)cccc3s2)C1` was 30.4%.
For the compound `CCc1nc(C(=O)N2CCOCC2CC(=O)c2ccccc2)c[nH]1` (stereo not drawn), the cytotoxicity at 70.5 h is -8.59%.
Consider `Cc1cn2c(n1)CCC(NS(=O)(=O)c1ccc(C)s1)C2` (stereo not drawn), for which the cytotoxicity at 70.5 h is -1.48%.
As for `Cc1cc(NC(=O)NCC(C(C)C)N2CCOCC2)n(C)n1` (stereo not drawn), the cytotoxicity at 70.5 h is -6.55%.
With `CC(C)CS(=O)(=O)CC(=O)N(C)Cc1ccc(OC(F)F)cc1`, the cytotoxicity at 70.5 h is -3.66%.
Consider `Cc1cc(CS(=O)(=O)c2ccccc2)no1`, for which the cytotoxicity at 70.5 h was -5.49%.
Turning to `CN(C)c1nccnc1C1CCN(C(=O)C2(C)CCCCN2C)CC1` (stereo not drawn), the cytotoxicity at 70.5 h is -5.33%.
Consider `O=C(NCCCc1ccc(F)cc1)c1ccc(N2CCOCC2)cc1`, for which the cytotoxicity at 70.5 h stood at 2.69%.
With `COc1ccccc1CC1CCCN(C(=O)c2cn[nH]c2C)C1` (stereo not drawn) the figure was -10.8%; with `CCCN1CCN(Cc2cn(CCC(N)=O)c3ccccc23)CC1`, -3.42%.
With `CCn1cc(NC(=O)NCCc2ccc3c(c2)OCO3)cn1` the figure was -10.2%.
Turning to `O=C(NCCCN1CCOCC1)C(OC1CCCC1)c1ccccc1` (stereo not drawn), the cytotoxicity at 70.5 h is -1.75%.
In the case of `Cc1ccc(CNC(=O)CCNS(C)(=O)=O)cc1`, the cytotoxicity at 70.5 h is -5.54%.
As to `Cc1noc(C)c1-c1ccc(C2CCCN2CCC(N)=O)nc1` (stereo not drawn), the cytotoxicity at 70.5 h was -3.28%.
For `CC(C)n1c2ccccc2c2c1cc(C(=O)N(C)C)n2S(C)(=O)=O`, the cytotoxicity at 70.5 h was determined as 13.1%.
As to `COc1ccc2c(c1)NC(C1CCNCC1)NS2(=O)=O` (stereo not drawn), the cytotoxicity at 70.5 h was -4.76%.
In the case of `CCOC(=O)NC(CNC(=O)c1ncccn1)CC(C)C` (stereo not drawn), the cytotoxicity at 70.5 h was -7.23%.
For the compound `COCCN1CCN(CCCS(=O)(=O)c2ccccc2)CC1C` (stereo not drawn), the cytotoxicity at 70.5 h stood at 0.059%.
Take `Cc1nn(C)c(C)c1CCC(=O)N1CCCC(n2cccn2)C1` (stereo not drawn): the cytotoxicity at 70.5 h came to 21.7%.
With `CCS(=O)(=O)N1CCC2(CC1)CN(c1cccnc1)C(=O)CO2`, the cytotoxicity at 70.5 h was -5.49%.
